Laboratory results: article PMC10226132, “First-in-Class Selective Inhibitors of the Lysine Acetyltransferase KAT8” (Journal of Medicinal Chemistry, 2023)

Tests used:
MCF7 cells = experiment: MTT cell proliferation assay, MCF7; type: cell-based, human; conditions: 10, 25, 50, 100 μM, 72 h
Source text: (§1) Human commercially available AML U937, breast cancer MCF7, lung adenocarcinoma NCI-H460, H1299 and A-549, glioblastoma U251, B lymphocyte AHH1 cell lines were maintained in compete 10% foetal bovine serum (FBS,) RPMI 1640 (Euroclone, Milan, IT) medium. Human commercially available colon cancer HCT116 and HT29 lines and cervix adenocarcinoma HeLa cells were maintained in compete 10% FBS Dulbecco’s Modified Eagle Medium (DMEM) high glucose medium (Euroclone). L-Glutamine, FBS, and penicillin streptomycin mixture added to medium were obtained from Euroclone. All cell lines were cultured at 37 °C in a humidified atmosphere of 5% CO2:95% air and were tested for mycoplasma contamination routinely by RT-PCR.
(§2) For analysis of cell proliferation, cells were plated in sextuplicate on 96-well plates in complete media. After 24 h, cells were exposed to different drugs for 72 h. The inhibitory effect of different drugs was assessed by MTT (Sigma, St. Louis, MO, USA) colorimetric assays as previously reported.[67] Aqueous DMSO (0.5% v/v) was used as a control (untreated). The results are reported as “viability of drug-treated cells/viability of untreated cells” × 100 and represent the average ±SD of three independent experiments. IC50 values were using fitted by nonlinear regression using GraphPad Prism 8.0.

H460 cells = experiment: MTT cell proliferation assay, H460; type: cell-based, human; conditions: 10, 25, 50, 100 μM, 72 h
Source text: as §1, §2

AHH-1 cells = experiment: Proliferation of noncancer B lymphocyte AHH-1 cells; type: cell-based, human; conditions: 72 h; for effect on proliferation of AHH-1 cells: 25, 50, 100, 200 μM; for IC50: Homo sapiens, AHH-1, NI = no inhibition at 200 µM
Source text: as §1, §2

KAT8 [1] = target: T1, KAT8 (Homo sapiens, UniProt Q9H7Z6); experiment: CETSA target engagement in HT29 cells; type: cell-based; conditions: 100 μM, 4 h, 59 °C
T1 construct: endogenous in cells; host or cells: HT29
Experimental: Target engagement in cells was determined by CETSA.[65],[66] For CETSA experiments with cells treated in culture, ∼1 × 10^6 HT29 were treated with DMSO (0.5% v/v final) or 100 μM compound for 4 h at 37 °C and 5% CO2 in a humidified incubator. The cells were harvested, washed twice with PBS, and resuspended in PBS with protease inhibitors. The cell suspensions were then distributed into PCR tubes, heated at the indicated temperature in a SimpliAmp Thermal Cycler (Applied Biosystems) for 3 min, and then cooled for another 3 min at rt. The cell suspensions were then lysed by freeze-thawing three times with 3 min incubations in an ethanol/dry ice bath and water bath at 37 °C. The lysates were then centrifuged at 20,000×g for 30 min at 4 °C to remove cellular debris and protein aggregates, and lysates were prepared for WB analysis. Proteins were separated by SDS-PAGE on 13.5% gels and were transferred to nitrocellulose membranes (Biorad Laboratories). Membranes were blocked for 1 h and incubated overnight with the appropriate primary antibody at 4 °C. After incubation, membranes were washed and incubated with the appropriate secondary antibody (Biorad Laboratories) for 1 h at room temperature. […] The band signals were quantified using ImageJ and values normalized to the 37 °C DMSO control.
T1 sequence (Q9H7Z6 whole entry): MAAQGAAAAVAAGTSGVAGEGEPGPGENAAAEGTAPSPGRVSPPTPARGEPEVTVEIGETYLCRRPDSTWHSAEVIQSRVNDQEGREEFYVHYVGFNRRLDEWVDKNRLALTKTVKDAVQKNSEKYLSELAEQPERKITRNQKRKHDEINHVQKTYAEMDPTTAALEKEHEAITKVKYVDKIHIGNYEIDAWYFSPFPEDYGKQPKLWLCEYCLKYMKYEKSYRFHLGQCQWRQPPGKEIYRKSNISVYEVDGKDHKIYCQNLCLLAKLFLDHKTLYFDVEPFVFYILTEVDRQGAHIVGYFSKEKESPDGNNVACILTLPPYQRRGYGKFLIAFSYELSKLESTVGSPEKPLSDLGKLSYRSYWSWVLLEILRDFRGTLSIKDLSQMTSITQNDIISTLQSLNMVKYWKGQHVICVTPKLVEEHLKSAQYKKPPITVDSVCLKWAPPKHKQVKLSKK

H4K16Ac in HT29 cells = experiment: Immunofluorescence of H4K16Ac in HT29 cells; type: cell-based, human; conditions: 50 μM, 24 h, compared with control
Experimental: For IF analysis, 1 × 10^5 HT-29 cells were grown on sterile coverslips. After 24 h, cells were exposed to different compounds for 24 h. IF staining for different acetylated lysine residues of histone H3 (H3K27Ac) and H4 (H4K16Ac) were carried out on PFA-fixed cells blocked with 20% goat serum in PBS and incubated overnight at 4 °C with primary rabbit monoclonal antibodies histone H3K27Ac (D5E4, Rabbit mAb#8173) and H4K16Ac (E2B8W, Rabbit mAb#13534, Cell Signalling Technology). Primary antibodies were detected using rabbit anti-IgG secondary antibodies conjugated with Cy3 (Jackson Immunoresearch 711-165-152). DNA was stained using 0.05 μg/mL 4′,6-diamidino-2-phenylindole (DAPI). The samples were acquired using an Olympus AX70 (Olympus America Inc.) microscope. Serial Z stacks of 0.4 μm thickness were acquired, taking care to cover the entire cell volume. For quantification of fluorescence intensity signals, images of untreated or treated cells were analyzed and processed using opensource Cell Profiler 4.1.3 image analysis software (https://cellprofiler.org/) to measure fluorescence-integrated intensity values for antibody binding relating to individual cells as previously reported.[67]

KAT8 [2] = target: T2, KAT8 (Homo sapiens, UniProt Q9H7Z6); experiment: Preincubation and jump-dilution analysis of KAT8 mode of inhibition; type: biochemical; conditions: for time-dependent inhibition of KAT8 (preincubation assay): 12.5 μM inhibitor, preincubation 5-120 min; for KAT8 activity regained after inhibitor dilution (jump-dilution): 10× IC50 (121 μM for 19, 81 μM for 34), 100-fold dilution, any timepoint 10-240 min
T2 construct: using the previously purified KAT8 (173–458, 5 nM); 6xHis tag with TEV protease cleavage site (N, cleaved yes); made in house; host or cells: E. coli BL21(DE3)
T2 sequence (Q9H7Z6 173-458): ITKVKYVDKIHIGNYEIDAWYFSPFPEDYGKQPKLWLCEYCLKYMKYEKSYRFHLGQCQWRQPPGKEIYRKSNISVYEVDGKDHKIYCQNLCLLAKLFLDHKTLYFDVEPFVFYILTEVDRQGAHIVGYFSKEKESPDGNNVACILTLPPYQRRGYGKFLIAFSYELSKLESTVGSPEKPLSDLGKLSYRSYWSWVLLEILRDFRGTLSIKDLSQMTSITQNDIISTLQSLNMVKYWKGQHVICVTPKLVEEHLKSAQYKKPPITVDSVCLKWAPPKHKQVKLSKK
Experimental: The preincubation assay was performed by incubating KAT8 with the relevant inhibitor (12.5 μM final concentration) for 5, 10, 20, 30, 60, and 120 min at rt. The activity of KAT8 was then measured as described in the “Radioactive KAT8 inhibition assay” paragraph of the Experimental Section. […] Fifty microliters were then incubated at rt for 10, 20, 30, 60, 120, and 240 min, and the mixtures were then processed as described in the “Radioactive KAT8 inhibition assay” paragraph of the Experimental section. Radioactive signal was normalized to the DMSO control reaction incubated for 240 min, converted in percent of KAT8 activity after 240 min, and plotted against each measurement time point. Experiments were performed in biological triplicates.

SMILES	antiproliferative activity in MCF7 (MCF7 cells)	antiproliferative activity in H460 (H460 cells)	effect on proliferation of AHH-1 cells (AHH-1 cells)	IC50 (AHH-1 cells) [µM]	target engagement (stabilization of KAT8 against thermal-induced aggregation) (KAT8 [1])	reduction in H4K16Ac signal intensity (IF) (H4K16Ac in HT29 cells)	time-dependent inhibition of KAT8 (preincubation assay) (KAT8 [2])	KAT8 activity regained after inhibitor dilution (jump-dilution) (KAT8 [2]) [%]
CC1=NN(c2ccc(C(=O)O)cc2)C(=O)/C1=C\c1ccc[nH]1 [Compound 19, (Z)-4-(4-((1H-Pyrrol-2-yl)methylene)-3-methyl-5-oxo-4,5-dihydro-1H-pyrazol-1-yl)benzoic Acid]	neither inhibitor had any effect	inhibited H460 proliferation	did not significantly affect the proliferation	> 200	stabilize KAT8 against thermal-induced aggregation	80%	did not observe time-dependent inhibition	~90
O=C(O)c1ccc(N2N=C(c3ccccc3)/C(=C/c3ccc[nH]3)C2=O)cc1 [Compound 34, (Z)-4-(4-((1H-Pyrrol-2-yl)methylene)-5-oxo-3-phenyl-4,5-dihydro-1H-pyrazol-1-yl)benzoic Acid]	neither inhibitor had any effect	essentially inactive	did not significantly affect the proliferation	> 200	stabilize KAT8 against thermal-induced aggregation	more than 50%	did not observe time-dependent inhibition	~90
